# According to patent US9694016B2 (Novartis AG, priority 2013, dated 2017):
# Target: b-Raf (V600E) (Homo sapiens (Human), UniProt P15056, V600E)
# Settings: read-out: b-Raf IC-50; Table 2; AlphaScreen, 3 hours reaction
# Chain of b-Raf (V600E) (P15056 whole entry V600E): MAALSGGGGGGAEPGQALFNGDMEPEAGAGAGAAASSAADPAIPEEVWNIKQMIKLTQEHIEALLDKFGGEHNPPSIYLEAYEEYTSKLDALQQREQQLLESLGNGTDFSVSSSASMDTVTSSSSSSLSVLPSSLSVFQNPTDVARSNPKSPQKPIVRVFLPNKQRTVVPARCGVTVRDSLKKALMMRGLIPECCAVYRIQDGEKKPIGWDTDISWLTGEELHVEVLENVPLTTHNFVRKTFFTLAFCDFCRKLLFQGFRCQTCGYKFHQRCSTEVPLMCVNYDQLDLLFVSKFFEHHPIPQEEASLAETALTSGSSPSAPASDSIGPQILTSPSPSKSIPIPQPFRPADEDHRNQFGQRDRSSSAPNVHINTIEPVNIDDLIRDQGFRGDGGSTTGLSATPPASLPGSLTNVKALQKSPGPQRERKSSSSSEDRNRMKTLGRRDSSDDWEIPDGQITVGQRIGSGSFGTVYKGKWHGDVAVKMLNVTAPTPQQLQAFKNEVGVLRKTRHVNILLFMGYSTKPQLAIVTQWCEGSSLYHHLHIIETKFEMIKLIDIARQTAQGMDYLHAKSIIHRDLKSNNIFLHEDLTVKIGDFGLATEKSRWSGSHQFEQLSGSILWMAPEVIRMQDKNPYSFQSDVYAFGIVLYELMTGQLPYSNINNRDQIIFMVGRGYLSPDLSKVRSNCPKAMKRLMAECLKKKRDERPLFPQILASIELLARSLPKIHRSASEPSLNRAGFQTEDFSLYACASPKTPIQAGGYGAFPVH
row,SMILES,IC50 [µM]
1,"Cc1ncc(N(C)C(=O)c2cccc(C(F)(F)F)c2)cc1-c1cnc(OC2CCOCC2)c(N2CCOCC2)c1 [Example 328, N-methyl-N-(2-methyl-5′-morpholino-6′-((tetrahydro-2H-pyran-4-yl)oxy)-[3,3′-bipyridin]-5-yl)-3-(trifluoromethyl)benzamide]",0.0624
2,"CCN(C(=O)c1cccc(C(F)(F)F)c1)c1cnc(C)c(-c2cnc(OC3CCOCC3)c(N3CCOCC3)c2)c1 [Example 329, N-ethyl-N-(2-methyl-5′-morpholino-6′-((tetrahydro-2H-pyran-4-yl)oxy)-[3,3′-bipyridin]-5-yl)-3-(trifluoromethyl)benzamide]",1.1
3,"CCCN(C(=O)c1cccc(C(F)(F)F)c1)c1cnc(C)c(-c2cnc(OC3CCOCC3)c(N3CCOCC3)c2)c1 [Example 330, N-(2-methyl-5′-morpholino-6′-((tetrahydro-2H-pyran-4-yl)oxy)-[3,3′-bipyridin]-5-yl)-N-propyl-3-(trifluoromethyl)benzamide]",2.4
4,"Cc1ccc(NC(=O)c2cccc(C(F)(F)F)c2)cc1-c1cc(N2CCOCC2)c(=O)n(CC2(C)COC2)c1 [Example 337, N-(4-methyl-3-(1-((3-methyloxetan-3-yl)methyl)-5-morpholino-6-oxo-1,6-dihydropyridin-3-yl)phenyl)-3-(trifluoromethyl)benzamide]",0.0125
5,"COc1ccc(C(=O)Nc2ccc(C)c(-c3cc(N4CCOCC4)c(=O)n(C)c3)c2)cc1C(F)(F)F [Example 339, 4-methoxy-N-(4-methyl-3-(1-methyl-5-morpholino-6-oxo-1,6-dihydropyridin-3-yl)phenyl)-3-(trifluoromethyl)benzamide]",0.0018
6,"Cc1ccc(NC(=O)c2cccc(OC(F)(F)F)c2)cc1-c1cc(N2CCOCC2)c(=O)n(C)c1 [Example 340, N-(4-methyl-3-(1-methyl-5-morpholino-6-oxo-1,6-dihydropyridin-3-yl)phenyl)-3-(trifluoromethoxy)benzamide]",0.0364

# Other lines, results leading:
row,IC50 [µM],SMILES
1,0.0232,"CCn1cc(-c2cc(NC(=O)c3ccnc(C(C)(C)C#N)c3)cnc2C)cc(N2CCOCC2)c1=O [Example 332, 2-(2-cyanopropan-2-yl)-N-(1′-ethyl-2-methyl-5′-morpholino-6′-oxo-1′,6′-dihydro-[3,3′-bipyridin]-5-yl)isonicotinamide]"
2,0.0114,"Cc1ncc(NC(=O)c2cccc(C(F)(F)F)c2)cc1-c1cc(N2CCOCC2)c(=O)n(CCC#N)c1 [Example 333, N-(1′-(2-cyanoethyl)-2-methyl-5′-morpholino-6′-oxo-1′,6′-dihydro-[3,3′-bipyridin]-5-yl)-3-(trifluoromethyl)benzamide]"
3,0.0023,"Cc1ccc(NC(=O)c2ccnc(C(C)(F)F)c2)cc1-c1cc(N2CCOCC2)c(=O)n(CCC#N)c1 [Example 334, N-(3-(1-(2-cyanoethyl)-5-morpholino-6-oxo-1,6-dihydropyridin-3-yl)-4-methylphenyl)-2-(1,1-difluoroethyl)isonicotinamide]"
4,0.0044,"Cc1ccc(NC(=O)c2ccnc(C(C)(C)C#N)c2)cc1-c1cc(N2CCOCC2)c(=O)n(CCC#N)c1 [Example 335, N-(3-(1-(2-cyanoethyl)-5-morpholino-6-oxo-1,6-dihydropyridin-3-yl)-4-methylphenyl)-2-(2-cyanopropan-2-yl)isonicotinamide]"
5,0.0055,"Cc1ccc(NC(=O)c2cccc(C(F)F)c2)cc1-c1cc(N2CCOCC2)c(=O)n(CCC#N)c1 [Example 336, N-(3-(1-(2-cyanoethyl)-5-morpholino-6-oxo-1,6-dihydropyridin-3-yl)-4-methylphenyl)-3-(difluoromethyl)benzamide]"
6,9,"Cc1ccc(NC(=O)c2ccnc(C(C)(C)C#N)c2)cc1-c1cc(N2CCOCC2)c(=O)n(CC2(C)COC2)c1 [Example 338, 2-(2-cyanopropan-2-yl)-N-(4-methyl-3-(1-((3-methyloxetan-3-yl)methyl)-5-morpholino-6-oxo-1,6-dihydropyridin-3-yl)phenyl)isonicotinamide]"
